In ChEMBL document CHEMBL1201862, “PubChem BioAssay data set” (2004):
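Protocol summary: plate cells (96-well), add compound at 5 concentrations, incubate 48 h, interpolate endpoints linearly. The concentration for 50% growth inhibition is given as GI50.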 Active and inactive are the calls of the source. Cut-off read from the data, not from the text of the source: active = GI50 up to about 1.1 µM and inactive = higher.

Assays:
Test in all cases: growth of human tumour cells (NCI), 48 h
786-0 = test system: 786-0
A498 = test system: A498
A549 = test system: A549
ACHN = test system: ACHN
BT-549 = test system: BT-549
CAKI-1 = test system: CAKI-1
CCRF-CEM = test system: CCRF-CEM
COLO 205 = test system: COLO 205
DU-145 = test system: DU-145
EKVX = test system: EKVX
HCC 2998 = test system: HCC 2998
HCT-116 = test system: HCT-116
HCT-15 = test system: HCT-15
HL-60 = test system: HL-60
HOP-62 = test system: HOP-62
HOP-92 = test system: HOP-92
HT-29 = test system: HT-29
Hs-578T = test system: Hs-578T
IGROV-1 = test system: IGROV-1
K562 = test system: K562
KM12 = test system: KM12
LOX IMVI = test system: LOX IMVI
M14 = test system: M14
MCF7 = test system: MCF7
MDA-MB-435 = test system: MDA-MB-435
MDA-N = test system: MDA-N
MOLT-4 = test system: MOLT-4
Malme-3M = test system: Malme-3M
NCI-H226 = test system: NCI-H226
NCI-H23 = test system: NCI-H23
NCI-H460 = test system: NCI-H460
NCI-H522 = test system: NCI-H522
NCI/ADR-RES = test system: NCI/ADR-RES
OVCAR-3 = test system: OVCAR-3
OVCAR-4 = test system: OVCAR-4
OVCAR-5 = test system: OVCAR-5
OVCAR-8 = test system: OVCAR-8
PC-3 = test system: PC-3
RPMI-8226 = test system: RPMI-8226
SF-268 = test system: SF-268
SF-295 = test system: SF-295
SF-539 = test system: SF-539
SK-MEL-28 = test system: SK-MEL-28
SK-MEL-2 = test system: SK-MEL-2
SK-MEL-5 = test system: SK-MEL-5
SK-OV-3 = test system: SK-OV-3
SN12C = test system: SN12C
SNB-19 = test system: SNB-19
SNB-75 = test system: SNB-75
SR = test system: SR
SW-620 = test system: SW-620
T47D = test system: T47D
TK-10 = test system: TK-10
U-251 = test system: U-251
UACC-257 = test system: UACC-257
UACC-62 = test system: UACC-62
UO-31 = test system: UO-31

COc1cc(C(c2ccccc2)N2C(=O)CC[C@H]2C(=O)O)cc(OC)c1OC (some centres not stated)
GI50 (786-0): > 100 µM (inactive) | GI50 (A498): > 100 µM (inactive) | GI50 (A549): > 100 µM (inactive) | GI50 (ACHN): > 100 µM (inactive) | GI50 (BT-549): > 100 µM (inactive) | GI50 (CAKI-1): > 100 µM (inactive) | GI50 (CCRF-CEM): > 100 µM (inactive) | GI50 (COLO 205): > 100 µM (inactive) | GI50 (DU-145): > 100 µM (inactive) | GI50 (EKVX): > 100 µM (inactive) | GI50 (HCC 2998): > 100 µM (inactive) | GI50 (HCT-116): > 100 µM (inactive) | GI50 (HCT-15): > 100 µM | GI50 (HL-60): > 100 µM (inactive) | GI50 (HOP-62): > 100 µM (inactive) | GI50 (HOP-92): > 100 µM (inactive) | GI50 (HT-29): > 100 µM (inactive) | GI50 (Hs-578T): > 100 µM (inactive) | GI50 (IGROV-1): > 100 µM (inactive) | GI50 (K562): > 100 µM (inactive) | GI50 (KM12): > 100 µM (inactive) | GI50 (LOX IMVI): > 100 µM (inactive) | GI50 (M14): > 100 µM (inactive) | GI50 (MCF7): > 100 µM (inactive) | GI50 (MDA-MB-435): > 100 µM (inactive) | GI50 (MDA-N): > 100 µM (inactive) | GI50 (MOLT-4): > 100 µM (inactive) | GI50 (Malme-3M): > 100 µM (inactive) | GI50 (NCI-H226): > 100 µM (inactive) | GI50 (NCI-H23): > 100 µM (inactive) | GI50 (NCI-H460): > 100 µM (inactive) | GI50 (NCI-H522): > 100 µM (inactive) | GI50 (NCI/ADR-RES): > 100 µM (inactive) | GI50 (OVCAR-3): > 100 µM (inactive) | GI50 (OVCAR-4): > 100 µM (inactive) | GI50 (OVCAR-5): > 100 µM (inactive) | GI50 (OVCAR-8): > 100 µM (inactive) | GI50 (PC-3): > 100 µM (inactive) | GI50 (RPMI-8226): > 100 µM (inactive) | GI50 (SF-268): > 100 µM (inactive) | GI50 (SF-295): > 100 µM (inactive) | GI50 (SF-539): > 100 µM (inactive) | GI50 (SK-MEL-28): > 100 µM (inactive) | GI50 (SK-MEL-2): > 100 µM (inactive) | GI50 (SK-MEL-5): > 100 µM (inactive) | GI50 (SK-OV-3): > 100 µM (inactive) | GI50 (SN12C): > 100 µM (inactive) | GI50 (SNB-19): > 100 µM (inactive) | GI50 (SNB-75): > 100 µM (inactive) | GI50 (SR): > 100 µM (inactive) | GI50 (SW-620): > 100 µM (inactive) | GI50 (T47D): > 100 µM (inactive) | GI50 (TK-10): > 100 µM (inactive) | GI50 (U-251): > 100 µM (inactive) | GI50 (UACC-257): > 100 µM (inactive) | GI50 (UACC-62): > 100 µM (inactive) | GI50 (UO-31): > 100 µM (inactive)
